Measured values from paper PMC4926070, “Cembranoids from a Chinese Collection of the Soft Coral Lobophytum crassum” (Marine Drugs, 2016).
Where two headings read alike, the source gives them in different places.

How the values were obtained:
[1] = test system: LPS-induced NO production in mouse peritoneal macrophages (PEMФ); assay: Inhibition of lipopolysaccharide (LPS)-induced nitric oxide (NO) production; type: cell-based; conditions: Peritoneal macrophage, compounds tested at 1–30 μM, read-out: IC50, inhibitory activity against LPS-induced NO production
Procedure: All compounds were tested for their in vitro anti-inflammatory activities. Nitric oxide (NO) is an important signaling molecule that is involved in the regulation of diverse physiological and pathological processes. Overproduction of NO is associated with various human diseases, particularly acute and chronic inflammation, while the level of NO can reflect the degree of inflammation.
(§1) A previously established protocol was followed except that 30 mM dexamethasone in DMSO was used as the positive control and each test compound (30 mM in DMSO) was diluted to 1–30 μM at r.t. before the experiment.

[2] = Cytotoxicity against mouse peritoneal macrophages; type: cell-based
Procedure: as §1

[3] = mouse peritoneal macrophages, read-out: CC50, cytotoxicity against mouse peritoneal macrophages

IC50 [1]	Compound	CC50 [2, 3]	CC50 [2]
17 ± 3 µM	COC(=O)C1=CCCC2(C)OC2CCC(C(=O)OC)=CC=C(C(C)C)CC1 (stereo not shown) [Compound 1, Locrassumin A]	> 60 µM	
8 ± 1 µM	COC(=O)/C1=C\CC[C@@]2(C)O[C@@H]2CC/C(C(=O)OC)=C/C=C(/C(C)C)CC1 [Compound 13, sarcophytonolide O]	> 60 µM	

The remaining lines, values behind:

Compound	IC50 [1]	CC50 [2, 3]	CC50 [2]
COC1(C)CC=CC(C)(O)CCC2=C(C)COC2C=C(C)CCC1O (stereo not drawn) [Compound 7, (2R*,7R*,8S*,12S*,1Z,3E,10E)-8-methoxy-2,16-epoxycembra-1(15),3,10-trien-7,12-diol]	13 ± 2 µM	> 60 µM	
CC1=C2CC/C(C)=C/CC[C@@]3(C)O[C@@H]3CC/C(C)=C/[C@H]2OC1=O [Compound 12, ent-sarcophine]	24 ± 2 µM		> 60 µM
COC(=O)/C1=C\C=C(\C(C)C)CCC2=CCC[C@](C)(OC2=O)C(=O)CC1 [Compound 17, ketoemblide]	12 ± 2 µM	> 60 µM	
